The text below walks through data of US20180037595A1, “BENZOXABOROLE COMPOUNDS AND USES THEREOF” (GLAXOSMITHKLINE INTELLECTUAL PROPERTY (NO.2) LIMITED, priority 2015, published 2018).

Each structure is given as a SMILES string. Where two headings read alike, the source gives them in different places.

Assay [1] concerns M. tuberculosis standard strain Mtb H37Rv. The assay is described as follows: MIC determination against mycobacteria (resazurin microtiter assay). The assay is classed as cell-based, Mycobacterium tuberculosis.
For assay [2], the system named is M. tuberculosis clinical isolates. The assay is described as follows: MIC against clinical strains (BACTEC MGIT 960 System). Particulars: Mycobacterium tuberculosis, nearly all of the clinical isolate strains of Tables 2A-2D. The assay is classed as cell-based.
Assay [3] has as its system A. baumannii ATCC 17978. In words: General antimicrobial activity assay (CLSI broth microdilution). The assay is classed as cell-based. Particulars: Acinetobacter baumannii, ATCC17978, read-out: MIC: A. baumannii ATCC 17978. Here is the method:
(§1) Whole-cell antimicrobial activity was determined by broth microdilution using the Clinical and Laboratory Standards Institute (CLSI) recommended procedure, Document M7-A7, “Methods for Dilution Susceptibility Tests for Bacteria that Grow Aerobically”.
For orientation: Broth dilution looks for growth in wells or tubes with falling amounts of substance.

In assay [4] the test system is E. coli K12 tolC::Tn10. The description is as above. The assay is classed as cell-based. Particulars: Escherichia coli, read-out: MIC: E. coli K12 tolC::Tn10. Here is the method:
as §1

Assay [5] relates to E. coli K12. The description is as above. The assay is classed as cell-based. Particulars: Escherichia coli, K12, read-out: MIC: E. coli K12. Here is the method:
as §1

Assay [6] relates to P. aeruginosa PA01. The assay is described as above. The assay is classed as cell-based. Particulars: Pseudomonas aeruginosa, PA01, read-out: MIC: P. aeruginosa PA01. Here is the method:
as §1

Assay [7] concerns the target Mtb LeuRS (Mycobacterium tuberculosis, UniProt P9WFV1). In words: LeuRS aminoacylation assay, IC50 determination. It is filed as biochemical, M. tuberculosis. Here is the method:
For biochemical analyses an N-terminal six histidine-tagged LeuRS was over-expressed in Escherichia coli which were E. coli codon-optimised (GenScript, Piscataway N.J., USA), from human mitochondria and cytoplasm, and M. tuberculosis. N-terminal six histidine-tagged LeuRS proteins were over-expressed and purified according to Novagen (Madison, Wis., USA) using an E. coli BL21(DE3) T7 RNA polymerase over-expression strain.
Experiments were performed in 96-well microtiter plates, using 80 μL reaction mixtures containing 50 mM HEPES-KOH (pH 8.0), 30 mM MgCl2 30 mM KCl, 13 μM L-[^14C]leucine (306 mCi/mmol, Perkin-Elmer), 15 uM total E. coli tRNA (Roche, Switzerland), 0.02% (w/v) BSA, 1 mM DTT, 0.2 μM LeuRS and 4 mM ATP at 30° C. Reactions were started by the addition of 4 mM ATP. After 7 minutes, reactions were quenched and tRNA was precipitated by the addition of 50 μL of 10% (w/v) TCA and transferred to 96-well nitrocellulose membrane filter plates (Millipore Multiscreen HTS, MSHAN4B50). Each well was then washed three times with 100 μL of 5% TCA. Filter plates were then dried under a heat lamp and the precipitated L-[^14C]leucine tRNALeu were quantified by liquid scintillation counting using a Wallac MicroBeta Trilux model 1450 liquid scintillation counter (PerkinElmer, Waltham, Mass., USA). The only difference was with the human cytoplasmic LeuRS when we used tRNA isolated from Brewer's Yeast (Roche Diagnostics GmbH).
Reactions were initiated by the addition of 4 mM ATP. Reactions were stopped after 7 minutes then precipitated and counted to quantify radioactivity. IC50 values were determined using the Graphpad Prism software package (Graphpad Software Inc. (La Jolla, Calif., USA).

Assay [8] deals with Human cyto LeuRS (Homo sapiens, UniProt Q9P2J5). The assay is described as follows: LeuRS aminoacylation assay, IC50 determination. The assay is classed as biochemical.
In assay [9] the target is T1, Human mito LeuRS (Homo sapiens, UniProt Q15031).
T1 sequence (Q15031 1-903): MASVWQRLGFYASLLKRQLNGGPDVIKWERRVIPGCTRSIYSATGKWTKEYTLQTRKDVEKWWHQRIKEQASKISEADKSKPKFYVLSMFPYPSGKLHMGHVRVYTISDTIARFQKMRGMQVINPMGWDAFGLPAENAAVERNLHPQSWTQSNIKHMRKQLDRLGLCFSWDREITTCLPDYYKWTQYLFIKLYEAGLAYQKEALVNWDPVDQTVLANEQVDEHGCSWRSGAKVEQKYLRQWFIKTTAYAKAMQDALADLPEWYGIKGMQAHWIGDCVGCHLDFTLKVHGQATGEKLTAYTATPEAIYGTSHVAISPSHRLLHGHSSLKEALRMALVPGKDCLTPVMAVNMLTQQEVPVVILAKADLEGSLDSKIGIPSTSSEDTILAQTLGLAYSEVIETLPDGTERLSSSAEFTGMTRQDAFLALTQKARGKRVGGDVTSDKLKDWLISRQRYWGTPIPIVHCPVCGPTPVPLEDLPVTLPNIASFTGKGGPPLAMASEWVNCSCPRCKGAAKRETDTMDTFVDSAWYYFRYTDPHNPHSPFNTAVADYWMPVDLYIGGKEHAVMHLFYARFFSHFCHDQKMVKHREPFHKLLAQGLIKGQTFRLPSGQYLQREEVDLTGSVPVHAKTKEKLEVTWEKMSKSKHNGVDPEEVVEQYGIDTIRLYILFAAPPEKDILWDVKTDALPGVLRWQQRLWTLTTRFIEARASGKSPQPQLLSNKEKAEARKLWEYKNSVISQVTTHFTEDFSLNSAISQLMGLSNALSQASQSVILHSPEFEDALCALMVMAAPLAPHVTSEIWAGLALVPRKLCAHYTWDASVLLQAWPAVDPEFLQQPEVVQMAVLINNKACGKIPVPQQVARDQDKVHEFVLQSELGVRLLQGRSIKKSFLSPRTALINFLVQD
In words: LeuRS aminoacylation assay, IC50 determination. It is filed as biochemical.

For assay [10], the system named is HepG2 cells. In words: HepG2 cytotoxicity assay (resazurin). The assay is classed as cell-based. Particulars: Homo sapiens, HepG2, 48 h, read-out: HepG2 cell 48 h Tox50 (A). In general terms: Alamar Blue is a resazurin reagent that responds to reducing activity.

Mtb LeuRS, sequence (P9WFV1 whole entry): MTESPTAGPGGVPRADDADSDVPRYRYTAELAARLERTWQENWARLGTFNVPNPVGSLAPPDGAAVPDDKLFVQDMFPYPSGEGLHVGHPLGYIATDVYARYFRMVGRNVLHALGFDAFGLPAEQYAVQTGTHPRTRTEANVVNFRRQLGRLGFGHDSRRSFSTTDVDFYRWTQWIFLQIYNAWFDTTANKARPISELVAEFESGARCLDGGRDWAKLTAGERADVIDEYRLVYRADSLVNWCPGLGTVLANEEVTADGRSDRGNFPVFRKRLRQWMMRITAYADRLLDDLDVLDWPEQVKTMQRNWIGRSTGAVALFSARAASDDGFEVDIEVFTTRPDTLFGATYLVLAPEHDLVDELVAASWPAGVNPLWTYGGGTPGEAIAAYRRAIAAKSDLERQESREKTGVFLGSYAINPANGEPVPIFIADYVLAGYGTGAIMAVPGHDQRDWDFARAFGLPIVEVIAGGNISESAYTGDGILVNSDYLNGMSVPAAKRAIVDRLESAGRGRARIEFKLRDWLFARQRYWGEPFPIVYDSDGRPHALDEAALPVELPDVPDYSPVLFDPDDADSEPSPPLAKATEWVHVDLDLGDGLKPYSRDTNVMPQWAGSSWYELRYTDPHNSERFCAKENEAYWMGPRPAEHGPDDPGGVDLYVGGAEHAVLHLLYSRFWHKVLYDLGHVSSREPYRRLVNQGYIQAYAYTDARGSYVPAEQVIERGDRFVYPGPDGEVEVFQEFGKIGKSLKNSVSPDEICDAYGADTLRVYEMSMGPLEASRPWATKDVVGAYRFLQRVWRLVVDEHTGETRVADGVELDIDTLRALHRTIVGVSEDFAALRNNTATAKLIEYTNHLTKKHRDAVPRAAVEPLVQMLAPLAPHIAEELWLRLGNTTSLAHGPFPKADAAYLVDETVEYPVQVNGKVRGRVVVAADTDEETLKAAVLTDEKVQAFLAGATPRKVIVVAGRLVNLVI
Human cyto LeuRS, sequence (Q9P2J5 whole entry): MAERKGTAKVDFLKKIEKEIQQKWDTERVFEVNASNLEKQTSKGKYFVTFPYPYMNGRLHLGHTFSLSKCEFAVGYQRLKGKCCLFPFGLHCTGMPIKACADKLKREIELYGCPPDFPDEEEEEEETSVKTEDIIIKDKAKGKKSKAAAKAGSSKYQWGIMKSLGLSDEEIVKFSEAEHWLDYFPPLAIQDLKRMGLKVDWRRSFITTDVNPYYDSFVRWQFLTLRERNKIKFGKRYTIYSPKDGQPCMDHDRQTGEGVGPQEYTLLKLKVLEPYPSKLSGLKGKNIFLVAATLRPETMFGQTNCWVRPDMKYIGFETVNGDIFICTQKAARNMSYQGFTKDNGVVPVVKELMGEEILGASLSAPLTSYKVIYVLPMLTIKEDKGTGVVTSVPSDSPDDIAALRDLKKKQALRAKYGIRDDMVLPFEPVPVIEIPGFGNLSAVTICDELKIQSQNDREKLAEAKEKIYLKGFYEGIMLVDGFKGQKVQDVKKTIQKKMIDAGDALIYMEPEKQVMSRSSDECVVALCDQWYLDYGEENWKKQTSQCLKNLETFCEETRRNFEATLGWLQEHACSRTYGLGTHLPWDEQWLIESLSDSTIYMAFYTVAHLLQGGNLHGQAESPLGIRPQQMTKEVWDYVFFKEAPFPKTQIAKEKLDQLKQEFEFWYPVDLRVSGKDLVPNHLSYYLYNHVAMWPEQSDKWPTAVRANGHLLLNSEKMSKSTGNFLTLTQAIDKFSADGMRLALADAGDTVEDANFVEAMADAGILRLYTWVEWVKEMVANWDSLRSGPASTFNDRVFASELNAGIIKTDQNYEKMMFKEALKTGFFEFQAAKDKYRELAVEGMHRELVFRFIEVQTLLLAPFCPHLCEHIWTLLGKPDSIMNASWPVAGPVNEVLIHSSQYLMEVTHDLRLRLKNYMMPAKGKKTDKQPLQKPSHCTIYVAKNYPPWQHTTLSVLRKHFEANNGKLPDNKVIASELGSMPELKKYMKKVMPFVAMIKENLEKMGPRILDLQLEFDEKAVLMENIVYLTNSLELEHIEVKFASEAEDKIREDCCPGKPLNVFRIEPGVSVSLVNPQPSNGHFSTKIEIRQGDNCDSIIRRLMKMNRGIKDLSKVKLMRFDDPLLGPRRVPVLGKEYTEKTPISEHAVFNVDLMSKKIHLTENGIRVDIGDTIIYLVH

Consider `Cl.NC[C@H]1OB2OCCOc3ccc(Br)c1c32` [Example 2, (S)-(3-bromo-7,8-dihydro-2H-1,6,9-trioxa-9a-borabenzo[cd]azulen-2-yl)methanamine hydrochloride], for which the “Selectivity Index (A/B)” value in assay [1] (HepG2 cell 48 h Tox50 (A) / Mtb H37Rv MIC (B)) was found to be 4177. The MIC (as a rule, the smallest concentration in the dilution series that meets the test's criterion for growth inhibition) in assay [1] (Mycobacterium tuberculosis, H37RV, read-out: Mtb H37Rv MIC (B)) was < 0.1 µM; in [2], < 0.1 µM; in [3], 64 µg/mL; in assay [4], 64 µg/mL; in assay [5], 64 µg/mL; in assay [6], 64 µg/mL. The “Mtb H37Rv MIC (B)” value in [1] (listed as EXAMPLE 2 G2-Br, hydrochloride) was found to be 0.07 µM. Also, the IC50 is 0.115 µM in assay [7] (read-out: Mtb LeuRS IC50); 0.13 µM in assay [7] (said to be sub-micromolar, read-out: IC50 values against M. tuberculosis); 118 µM in [8]; > 300 µM in assay [9]; 292 µM in assay [10].
